Reference: US11028090B2 (Dong Wha Pharm. Co., Ltd., priority 2017, dated 2021)
Like-named read-outs stand apart in the source and are kept apart here.

Biological target: BRD4 (BD1+BD2) bromodomain (Homo sapiens (Human), UniProt O60885)
Test: BRD4 binding inhibition (AlphaScreen, GST-BRD4 vs tetraacetylated histone H4 peptide)
Description: A mixture comprising 100 nM GST-BRD4 (BD1+BD2) and 100 nM biotinylated acetyl-histone H4 (Lys5,8,12,16) peptide was prepared in assay buffer (50 mM HEPES pH 7.4; 25 mM NaCl; 0.05% Tween 20; 0.1% bovine serum albumin (BSA); 10 mM dithiothreitol (DTT)). After adding 6 μl of the mixture to the diluent, 6 μl of the pre-mixed AlphaLISA Glutathione Acceptor Beads and AlphaScreen Streptavidin Donor Beads (PerkinElmer, 10 μg/ml in assay buffer, respectively) was added thereto. The samples were incubated in the dark at room temperature for 30 minutes (shaking at 300 rpm). Then, the signals were measured with PerkinElmer Envision HTS Multilabel Reader using an alpha screen protocol of PerkinElmer. Each plate contained the negative control in which biotinylated acetyl-histone H4 peptide and GST-BRD4 (BD1+BD2) were replaced by assay buffer. In the case of using the software GraphPad Prism for calculation, the negative control point was input as a low standard value. The positive control (probe molecule l-BET762 containing protein/peptide mixture) proceeded to pipetting.

[1] = GST-BRD4 (BD1+BD2) / biotinylated acetyl-histone H4 (Lys5,8,12,16) peptide, read-out: IC50, BRD4 binding inhibition
[2] = GST-BRD4 (BD1+BD2) vs biotinylated acetyl-histone H4 peptide, AlphaScreen, read-out: BRD4 IC50

| IC50 [1] | IC50 [2] | SMILES |
| --- | --- | --- |
| ≤ 50 nM | 29 nM | COCCOc1ccc2c(c1)nc(NCCCCNC(=O)[C@@H](N)C(C)C)c1nnc(C)n12 (stereo in doubt) [Example 397, 2-amino-N-{4-[7-(2-methoxy-ethoxy)-1-methyl-[1,2,4]triazolo[4,3-a]quinoxaline-4-ylamino]-butyl}-3-methyl-butyramide] |
| ≤ 50 nM | 40 nM | Cc1nnc2c(NCCCCNC(=O)[C@H](O)C(C)C)nc3ccccc3n12 [Example 9, 2-(R)-hydroxy-N-[4-(1-methyl-[1,2,4]triazolo[4,3-a]quinoxaline-4-ylamino)-butyl]-3-methyl-butyramide] |
| – | 57 nM | Cc1cccc(C)c1C(=O)NCCCCNc1nc2ccccc2n2c(C)nnc12 [Example 13, 2,6-dimethyl-N-[4-(1-methyl-[1,2,4]triazolo[4,3-a]quinoxaline-4-ylamino)-butyl]-benzamide] |
| ≤ 50 nM | 41 nM | Cc1nnc2c(NCCCCNC(=O)c3ccc(Cl)cc3)nc3ccccc3n12 [Example 14, 4-chloro-N-[4-(1-methyl-[1,2,4]triazolo[4,3-a]quinoxaline-4-ylamino)-butyl]-benzamide] |
| ≤ 50 nM | 27 nM | Cc1nnc2c(NCCCCNC(=O)c3cccc(Cl)c3)nc3ccccc3n12 [Example 15, 3-chloro-N-[4-(1-methyl-[1,2,4]triazolo[4,3-a]quinoxaline-4-ylamino)-butyl]-benzamide] |
| ≤ 50 nM | 44 nM | Cc1nnc2c(NCCCCNC(=O)c3ccc(Cl)c(Cl)c3)nc3ccccc3n12 [Example 16, 3,4-dichloro-N-[4-(1-methyl-[1,2,4]triazolo[4,3-a]quinoxaline-4-ylamino)-butyl]-benzamide] |
| – | 51 nM | Cc1nnc2c(NCCCCNC(=O)c3cccc(Cl)c3Cl)nc3ccccc3n12 [Example 17] |
| ≤ 50 nM | 36 nM | Cc1nnc2c(NCCCCNC(=O)c3ccc(Cl)nc3Cl)nc3ccccc3n12 [Example 19, 2,6-dichloro-N-[4-(1-methyl-[1,2,4]triazolo[4,3-a]quinoxaline-4-ylamino)-butyl]-nicotinamide] |
| ≤ 50 nM | 43 nM | Cc1nnc2c(NCCCCNC(=O)c3ccc(Cl)nc3)nc3ccccc3n12 [Example 20, 6-chloro-N-[4-(1-methyl-[1,2,4]triazolo[4,3-a]quinoxaline-4-ylamino)-butyl]-nicotinamide] |
| – | 57 nM | Cc1ccc(C(=O)NCCCCNc2nc3ccccc3n3c(C)nnc23)c(Cl)n1 [Example 21, 2-chloro-6-methyl-N-[4-(1-methyl-[1,2,4]triazolo[4,3-a]quinoxaline-4-ylamino)-butyl]-nicotinamide] |
| – | 81 nM | Cc1nnc2c(NCCCCNC(=O)NC(C)(C)C)nc3ccccc3n12 [Example 22, 1-tert-butyl-3-[4-(1-methyl-[1,2,4]triazolo[4,3-a]quinoxaline-4-ylamino)-butyl]-urea] |
| – | 67 nM | Cc1nnc2c(NCCCCNC(=O)Nc3cccc(F)c3)nc3ccccc3n12 [Example 24, 1-(3-fluoro-phenyl)-3-[4-(1-methyl-[1,2,4]triazolo[4,3-a]quinoxaline-4-ylamino)-butyl]-urea] |
| – | 55 nM | Cc1nnc2c(NCCCCNC(=O)OCc3ccccc3)nc3ccccc3n12 [Example 25, [4-(1-methyl-[1,2,4]triazolo[4,3-a]quinoxaline-4-ylamino)-butyl]-carbamic acid benzylester] |
| – | 96 nM | Cc1nnc2c(NCCCCNC(=O)C(C)(C)C)nc3cc(Cl)c(Cl)cc3n12 [Example 28, N-[4-(7,8-dichloro-1-methyl-[1,2,4]triazolo[4,3-a]quinoxaline-4-ylamino)-butyl]-2,2-dimethyl-propionamide] |
| – | 98 nM | Cc1nnc2c(NCCCCNC(=O)C(C)C)nc3cc(Cl)c(Cl)cc3n12 [Example 29, N-[4-(7,8-dichloro-1-methyl-[,2,4]triazolo[4,3-a]quinoxaline-4-ylamino)-butyl]-isobutyramide] |
| ≤ 10 nM | – | Cc1nnc2c(NCCCCNC(=O)CC(C)C)nc3cc(Cl)c(Cl)cc3n12 [Example 30, N-[4-(7,8-dichloro-1-methyl-[1,2,4]triazolo[4,3-a]quinoxaline-4-ylamino)-butyl]-3-methyl-butyramide] |
| ≤ 50 nM | 31 nM | Cc1nnc2c(NCCCCNC(=O)c3ccccc3)nc3cc(Cl)c(Cl)cc3n12 [Example 31, N-[4-(7,8-dichloro-1-methyl-[1,2,4]triazolo[4,3-a]quinoxaline-4-ylamino)-butyl]-benzamide] |
| – | 89 nM | Cc1nnc2c(NCCCCNC(=O)c3ccccc3Cl)nc3cc(Cl)c(Cl)cc3n12 [Example 32] |

| IC50 [1] | IC50 [2] | SMILES |
| --- | --- | --- |
| – | 81 nM | Cc1cc2nc(NCCCCNC(=O)OC(C)(C)C)c3nnc(C)n3c2cc1C [Example 34, [4-(1,7,8-trimethyl-[1,2,4]triazolo[4,3-a]quinoxaline-4-ylamino)-butyl]-carbamic acid-tert-butylester] |
| – | 97 nM | Cc1nnc2c(NCCCCNC(=O)[C@H](O)C(C)C)nc3cc(F)c(F)cc3n12 [Example 38, N-[4-(7,8-difluoro-1-methyl-[1,2,4]triazolo[4,3-a]quinoxaline-4-ylamino)-butyl]-2-(R)-hydroxy-3-methyl-butyramide] |
| – | 69 nM | Cc1ccc2nc(NCCCCNC(=O)OC(C)(C)C)c3nnc(C)n3c2c1 [Example 40, [4-(1,8-dimethyl-[1,2,4]triazolo[4,3-a]quinoxaline-4-ylamino)-butyl]-carbamic acid-tert-butylester] |
| – | 72 nM | Cc1ccc2nc(NCCCCNC(=O)NC(C)(C)C)c3nnc(C)n3c2c1 [Example 44, 1-tert--butyl-3-[4-(1,8-dimethyl-[1,2,4]triazolo[4,3-a]quinoxaline-4-ylamino)-butyl]-urea] |
| ≤ 50 nM | – | Cc1ccc2nc(NCCCCNC(=O)c3ccccc3)c3nnc(C)n3c2c1 [Example 45, N-[4-(1,8-dimethyl-[1,2,4]triazolo[4,3-a]quinoxaline-4-ylamino)-butyl]-benzamide] |
| – | 73 nM | Cc1ccc2nc(NCCCCNC(=O)Nc3ccccc3)c3nnc(C)n3c2c1 [Example 46, 1-[4-(1,8-dimethyl-[1,2,4]triazolo[4,3-a]quinoxaline-4-ylamino)-butyl]-3-phenyl-urea] |
| ≤ 50 nM | 42 nM | Cc1nnc2c(NCCCCNC(=O)OC(C)(C)C)nc3ccc(F)cc3n12 [Example 47, [4-(8-fluoro-1-methyl-[1,2,4]triazolo[4,3-a]quinoxaline-4-ylamino)-butyl]-carbamic acid-tert-butylester] |
| ≤ 50 nM | – | Cc1nnc2c(NCCCCNC(=O)c3ccccc3)nc3ccc(F)cc3n12 [Example 51, N-[4-(8-fluoro-1-methyl-[1,2,4]triazolo[4,3-a]quinoxaline-4-ylamino)-butyl]-benzamide] |
| – | 70 nM | Cc1nnc2c(NCCCCNC(=O)NC(C)(C)C)nc3ccc(F)cc3n12 [Example 52, 1-tert-butyl-3-[4-(8-fluoro-1-methyl-[1,2,4]triazolo[4,3-a]quinoxaline-4-ylamino)-butyl]-urea] |
| – | 60 nM | Cc1nnc2c(NCCCCNC(=O)Nc3ccccc3)nc3ccc(F)cc3n12 [Example 53, 1-[4-(8-fluoro-1-methyl-[1,2,4]triazolo[4,3-a]quinoxaline-4-ylamino)-butyl]-3-phenyl-urea] |
| ≤ 50 nM | 50 nM | Cc1nnc2c(NCCCCNC(=O)OC(C)(C)C)nc3ccc(Cl)cc3n12 [Example 54, [4-(8-chloro-1-methyl-[1,2,4]triazolo[4,3-a]quinoxaline-4-ylamino)-butyl]-carbamic acid-tert-butylester] |
| ≤ 50 nM | 28 nM | COCC(=O)NCCCCNc1nc2cc(OC)c(OC)cc2n2c(C)nnc12 [Example 80, N-[4-(7,8-dimethoxy-1-methyl-[1,2,4]triazolo[4,3-a]quinoxaline-4-ylamino)-butyl]-2-methoxy-acetamide] |
| ≤ 50 nM | 12 nM | COc1cc2nc(NCCCCNC(=O)[C@H](O)C(C)C)c3nnc(C)n3c2cc1OC [Example 82, N-[4-(7,8-dimethoxy-1-methyl-[1,2,4]triazolo[4,3-a]quinoxaline-4-ylamino)-butyl]-2-(R)-hydroxy-3-methyl-butyramide] |
| ≤ 50 nM | 27 nM | COc1cc2nc(NCCCCNC(=O)COC(C)=O)c3nnc(C)n3c2cc1OC [Example 87] |
| ≤ 50 nM | 47 nM | CCNC(=O)NCCCCNc1nc2cc(OC)c(OC)cc2n2c(C)nnc12 [Example 89, 1-[4-(7,8-dimethoxy-1-methyl-[1,2,4]triazolo[4,3-a]quinoxaline-4-ylamino)-butyl]-3-ethyl-urea] |
| ≤ 50 nM | 41 nM | COc1cc2nc(NCCCCNC(=O)N3CCOCC3)c3nnc(C)n3c2cc1OC [Example 92, morpholine-4-carboxylic acid-[4-(7,8-dimethoxy-1-methyl-[1,2,4]triazolo[4,3-a]quinoxaline-4-ylamino)-butyl]-amide] |
| – | 57 nM | COc1cc2nc(NCCCCNC(=O)Nc3ccccc3)c3nnc(C)n3c2cc1OC [Example 94] |
| – | 69 nM | COc1cc2nc(NCCCCNC(=O)c3ccc(Cl)cc3)c3nnc(C)n3c2cc1OC [Example 100, 4-chloro-N-[4-(7,8-dimethoxy-1-methyl-[1,2,4]triazolo[4,3-a]quinoxaline-4-ylamino)-butyl]-benzamide] |
